Test results: patent EP2284178A2, “Inhibitors of cancer cell, T-cell and keratinocyte proliferation” (4SC AG, priority 2005, dated 2007)

Molecular target: T1, human Proteasome (Homo sapiens, UniProt P28074)
T1 construct: purchased Immatics, Tübingen
Test: chymotryptic activity of the 20S proteasome (Suc-LLVT-AMC substrate, fluorescence)
Assay type: biochemical
Settings: for human Proteasome IC50: result given in words
Procedure: The chymotryptic activity of the 20S proteasome (Immatics, Tübingen) was determined using a Tecan Ultra plate reader and Suc-LLVT-AMC as substrate (Bachem). In the wells of a black 96 well polypropylene plate, 2 µl of the respective inhibitor dissolved in DMSO were mixed with 50 µl substrate solution (25 mM HEPES pH 7.5 at 20°C, 0.5 mM EDTA and Suc-LLVT-AMC (in the appropriate concentration) and the reaction was initiated by adding 150 µl proteasome solution (1.3 µg/ml 20S proteasome in 25 mM HEPES pH 7.5 at 20°C, 0.5 mM EDTA, 0.033% (w/v) SDS). Substrate hydrolysis was followed by fluorescence spectroscopy (excitation wavelength: 360 nm; emission wavelength: 465 nm) for 20 min at 30°C and initial velocities were calculated and expressed as change in relative fluorescence units (RFU) per second.

| Compound | human Proteasome IC50 | IC50 (unit printed as µm) [µM] |
| --- | --- | --- |
| CC(C)(C)OC(=O)NC(Cc1ccc(Br)cc1)C(=O)NC(Cc1ccc2ccccc2c1)C(=O)NC(C=NN1CC(=O)NC1=O)Cc1ccccc1 (stereo not drawn) [Compound 7] | nanomolar | – |
| O=C1CN(N=CC(Cc2ccccc2)NC(=O)C(Cc2ccc3ccccc3c2)NC(=O)C(Cc2ccc(F)cc2)NC(=O)OCc2ccccc2)C(=O)N1 (stereo not drawn) [Compound 9] | nanomolar | – |
| O=C1CN(/N=C/C(Cc2ccccc2)NC(=O)c2csc(-c3ccc4c(c3)CCO4)n2)C(=O)N1 (stereo not drawn) [Compound 10] | – | 3.5 |
